In patent US8530468B2 (Cancer Research Technology Limited, priority 2008, dated 2013):

Tests used:
[1] = tested on: HT29 colon carcinoma cells; assay: Cytotoxicity assay (SRB); assay type: cell-based; details: Homo sapiens, HT-29, 96 hours, read-out: SRB IC50 (concentration required to inhibit growth by 50%)
HT29 cells = assay: Mitosis inhibition assay (MIA), checkpoint abrogation after etoposide; assay type: cell-based; details: Homo sapiens, HT-29, etoposide 50 μM 1 hour, then compound with nocodazole 100 ng/mL, 21 hours, read-out: MIA IC50 (concentration required to allow 50% of cells to enter mitosis)
CHK1 = molecular target: T1, CHK1 (Homo sapiens, UniProt O14757); assay: CHK1 kinase function inhibition (DELFIA assay, phosphorylation of CDC25C peptide); assay type: biochemical; details: CHK1 1 nM, ATP 30 μM, 30 minutes at room temperature
T1 sequence (O14757 1-476): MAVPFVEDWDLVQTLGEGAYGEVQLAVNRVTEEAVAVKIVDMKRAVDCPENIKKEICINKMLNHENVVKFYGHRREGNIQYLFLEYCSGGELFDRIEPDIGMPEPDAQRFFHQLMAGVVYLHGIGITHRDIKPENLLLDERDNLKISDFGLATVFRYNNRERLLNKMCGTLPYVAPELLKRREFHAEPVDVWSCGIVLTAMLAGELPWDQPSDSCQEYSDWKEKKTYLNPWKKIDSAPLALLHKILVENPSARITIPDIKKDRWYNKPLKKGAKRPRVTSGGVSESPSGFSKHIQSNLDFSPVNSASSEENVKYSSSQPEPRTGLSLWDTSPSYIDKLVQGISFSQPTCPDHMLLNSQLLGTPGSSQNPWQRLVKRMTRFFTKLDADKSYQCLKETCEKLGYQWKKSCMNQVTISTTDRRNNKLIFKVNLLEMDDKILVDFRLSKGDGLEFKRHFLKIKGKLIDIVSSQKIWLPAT

SMILES	IC50 (HT29 cells)	IC50 (CHK1)	IC50 [1]
CC(CN(C)C)Oc1nc(Nc2cc3cccc(NCCCO)c3cn2)cnc1C#N (stereo not drawn) [AA-034]	≤ 10 µM	≤ 1 µM	≤ 10 µM
COCCNc1cccc2cc(Nc3cnc(C#N)c(O[C@@H]4CCNC4)n3)ncc12 [AA-037]	≤ 10 µM	≤ 1 µM	≤ 10 µM
COCCCNc1cccc2cc(Nc3cnc(C#N)c(O[C@H](C)CN(C)C)n3)ncc12 [AA-038]	≤ 10 µM	≤ 1 µM	≤ 10 µM
N#Cc1ncc(Nc2cc3cccc(NCCCO)c3cn2)nc1O[C@@H]1CCNC1 [AA-040]	≤ 10 µM	≤ 1 µM	≤ 10 µM
C[C@H](CN(C)C)Oc1nc(Nc2cc3cccc(NCCCO)c3cn2)cnc1C#N [AA-041]	≤ 10 µM	≤ 1 µM	≤ 10 µM
N#Cc1ncc(Nc2cc3cccc(NCCO)c3cn2)nc1OC[C@H]1CNCCO1 [AA-043]	≤ 10 µM	≤ 1 µM	≤ 10 µM
N#Cc1ncc(Nc2cc3cccc(NCCO)c3cn2)nc1O[C@@H]1CCNC1 [AA-044]	≤ 10 µM	≤ 1 µM	≤ 10 µM
N#Cc1ncc(Nc2cc3ccccc3cn2)nc1OC[C@H]1CNCCO1 [AA-049]	≤ 10 µM	≤ 1 µM	≤ 10 µM
N#Cc1ncc(Nc2cc3ccccc3cn2)nc1O[C@@H]1CCNC1 [AA-050]	≤ 10 µM	≤ 1 µM	≤ 10 µM
N#Cc1ncc(Nc2cc3cccc(Br)c3cn2)nc1OC[C@H]1CNCCO1 [AA-051]	≤ 10 µM	≤ 1 µM	≤ 10 µM
N#Cc1ncc(Nc2cc3cccc(Br)c3cn2)nc1O[C@@H]1CCNC1 [AA-052]	≤ 10 µM	≤ 1 µM	≤ 10 µM

Further lines, with some results ahead:

IC50 (HT29 cells)	IC50 (CHK1)	SMILES	IC50 [1]
≤ 10 µM	≤ 1 µM	C[C@H](CN(C)C)Oc1nc(Nc2cc3cccc(F)c3cn2)cnc1C#N [AA-054]	≤ 10 µM
≤ 10 µM	≤ 1 µM	N#Cc1ncc(Nc2cc3cccc(C(F)(F)F)c3cn2)nc1O[C@@H]1CCNC1 [AA-055]	≤ 10 µM
≤ 10 µM	≤ 1 µM	Cc1cccc2cc(Nc3cnc(C#N)c(O[C@H](C)CN(C)C)n3)ncc12 [AA-057]	≤ 10 µM
≤ 10 µM	≤ 1 µM	Cc1cccc2cc(Nc3cnc(C#N)c(O[C@@H]4CCNC4)n3)ncc12 [AA-058]	≤ 10 µM
≤ 10 µM	≤ 1 µM	CNc1cccc2cc(Nc3cnc(C#N)cn3)ncc12 [AA-059]	≤ 10 µM
≤ 10 µM	≤ 1 µM	CNc1cccc2cc(Nc3cnc(C#N)c(OC(C)CN(C)C)n3)ncc12 (stereo not drawn) [AA-060]	≤ 10 µM
≤ 10 µM	≤ 1 µM	N#Cc1cnc(Nc2cc3cccc(N)c3cn2)cn1 [AA-061, 5-(8-Aminoisoquinolin-3-ylamino)pyrazine-2-carbonitrile]	≤ 10 µM
≤ 10 µM	≤ 1 µM	COc1cccc2cc(Nc3cnc(C#N)c(O[C@H](C)CN(C)C)n3)ncc12 [AA-067, (R)-3-(1-(Dimethylamino)propan-2-yloxy)-5-(8-methoxyisoquinolin-3-ylamino)pyrazine-2-carbonitrile]	≤ 10 µM
